Columns and labels:
Assay type in all cases: in vivo
[1] = test system: wheat (Triticum aestivum); assay: Test A postemergence, wheat; details: 1000 g ai/ha, visual rating after approx. 10 d, 0 to 100 scale, 0 no effect, 100 complete control
In short: (§1)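 Visual injury rating on a 0–100 scale (0 = no effect, 100 = complete control) versus untreated controls, ~10 d after treatment in greenhouse. Preemergence: directed soil spray over seeded loam/sand. Postemergence: foliar spray at one- to two-leaf stage, 2–10 cm tall.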

[2] = test system: pigweed (Amaranthus retroflexus); assay: Test A postemergence, pigweed; details: 1000 g ai/ha, visual rating after approx. 10 d, 0 to 100 scale, 0 no effect, 100 complete control
In short: as §1

[3] = test system: barnyardgrass (Echinochloa crus-galli); assay: Test A preemergence, barnyardgrass; details: 1000 g ai/ha, visual rating after approx. 10 d, 0 to 100 scale, 0 no effect, 100 complete control
In short: as §1

[4] = test system: pigweed (Amaranthus retroflexus); assay: Test A preemergence, pigweed; details: 1000 g ai/ha, visual rating after approx. 10 d, 0 to 100 scale, 0 no effect, 100 complete control
In short: as §1

[5] = test system: corn (Zea mays); assay: Test A preemergence, corn; details: 1000 g ai/ha, visual rating after approx. 10 d, 0 to 100 scale, 0 no effect, 100 complete control
Source text: (§2) Seeds of plant species selected from barnyardgrass (Echinochloa crus-galli), crabgrass (large crabgrass, Digitaria sanguinalis), kochia (Kochia scoparia), ragweed (common ragweed, Ambrosia elatior), morningglory (Ipomoea spp.), velvetleaf (Abutilon theophrasti), ryegrass, Italian (Italian ryegrass, Lolium multiflorum), foxtail, giant (giant foxtail, Setaria faberii), wheat (Triticum aestivum), corn (Zea mays), and pigweed (Amaranthus retroflexus), were planted into a blend of loam soil and sand and treated preemergence with a directed soil spray using test chemicals formulated in a non-phytotoxic solvent mixture which included a surfactant. At the same time, plants selected from these crop and weed species and also blackgrass (Alopecurus myosuroides), and galium (catchweed bedstraw, Galium aparine), were planted in pots containing the same blend of loam soil and sand and treated with postemergence applications of test chemicals formulated in the same manner. Plants ranged in height from 2 to 10 cm and were in the one- to two-leaf stage for the postemergence treatment. Treated plants and untreated controls were maintained in a greenhouse for approximately 10 d, after which time all treated plants were compared to untreated controls and visually evaluated for injury. Plant response ratings, summarized in Table A, are based on a 0 to 100 scale where 0 is no effect and 100 is complete control. A dash (-) response means no test result.

[6] = test system: velvetleaf (Abutilon theophrasti); assay: Test A preemergence, velvetleaf; details: 1000 g ai/ha, visual rating after approx. 10 d, 0 to 100 scale, 0 no effect, 100 complete control
Source text: as §2

[7] = test system: crabgrass (large crabgrass, Digitaria sanguinalis); assay: Test A preemergence, crabgrass; details: 1000 g ai/ha, visual rating after approx. 10 d, 0 to 100 scale, 0 no effect, 100 complete control
Source text: as §2

[8] = test system: crabgrass (large crabgrass, Digitaria sanguinalis); assay: Test A postemergence, crabgrass; details: 1000 g ai/ha, visual rating after approx. 10 d, 0 to 100 scale, 0 no effect, 100 complete control
Source text: as §2

[9] = test system: velvetleaf (Abutilon theophrasti); assay: Test A postemergence, velvetleaf; details: 1000 g ai/ha, visual rating after approx. 10 d, 0 to 100 scale, 0 no effect, 100 complete control
Source text: as §2

[10] = test system: morningglory (Ipomoea spp.); assay: Test A preemergence, morningglory; details: 1000 g ai/ha, visual rating after approx. 10 d, 0 to 100 scale, 0 no effect, 100 complete control
Source text: as §2

[11] = test system: morningglory (Ipomoea spp.); assay: Test A postemergence, morningglory; details: 1000 g ai/ha, visual rating after approx. 10 d, 0 to 100 scale, 0 no effect, 100 complete control
Source text: as §2

[12] = test system: barnyardgrass (Echinochloa crus-galli); assay: Test A postemergence, barnyardgrass; details: 1000 g ai/ha, visual rating after approx. 10 d, 0 to 100 scale, 0 no effect, 100 complete control
In short: as §1

[13] = test system: wheat (Triticum aestivum); assay: Test A preemergence, wheat; details: 1000 g ai/ha, visual rating after approx. 10 d, 0 to 100 scale, 0 no effect, 100 complete control
Source text: as §2

[14] = test system: foxtail, giant (giant foxtail, Setaria faberii); assay: Test A postemergence, giant foxtail; details: 1000 g ai/ha, visual rating after approx. 10 d, 0 to 100 scale, 0 no effect, 100 complete control
In short: as §1

[15] = test system: foxtail, giant (giant foxtail, Setaria faberii); assay: Test A preemergence, giant foxtail; details: 1000 g ai/ha, visual rating after approx. 10 d, 0 to 100 scale, 0 no effect, 100 complete control
In short: as §1

[16] = test system: corn (Zea mays); assay: Test A postemergence, corn; details: 1000 g ai/ha, visual rating after approx. 10 d, 0 to 100 scale, 0 no effect, 100 complete control
In short: as §1

[17] = test system: barnyardgrass (Echinochloa crus-galli); assay: Test B flooded paddy test, barnyardgrass; details: 250 g ai/ha; applied to paddy water at 2-leaf stage; 13 to 15 d; scale 0 no effect to 100 complete control
In short: (§3)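 Plants grown to the 2-leaf stage. At treatment, pots were flooded to 3 cm above the soil, compound was applied directly to the paddy water, and that depth was held throughout. After 13 to 15 d in the greenhouse, response was rated visually against controls on a 0 (no effect) to 100 (complete control) scale.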

[18] = test system: ducksalad (Heteranthera limosa); assay: Test B flooded paddy test, ducksalad; details: 250 g ai/ha; applied to paddy water at 2-leaf stage; 13 to 15 d; scale 0 no effect to 100 complete control
In short: as §3

[19] = test system: sedge, umbrella (small-flower umbrella sedge, Cyperus difformis); assay: Test B flooded paddy test, umbrella sedge; details: 250 g ai/ha; applied to paddy water at 2-leaf stage; 13 to 15 d; scale 0 no effect to 100 complete control
In short: as §3

[20] = test system: rice (Oryza sativa); assay: Test B flooded paddy test, rice; details: 250 g ai/ha; applied to paddy water at 2-leaf stage; 13 to 15 d; scale 0 no effect to 100 complete control
In short: as §3

Compound | Plant response rating, Wheat [1] | Plant response rating, Pigweed [2] | Plant response rating, Barnyardgrass [3] | Plant response rating, Pigweed [4] | Plant response rating, Corn [5] | Plant response rating, Velvetleaf [6] | Plant response rating, Crabgrass [7] | Plant response rating, Crabgrass [8] | Plant response rating, Velvetleaf [9] | Plant response rating, Morningglory [10] | Plant response rating, Morningglory [11] | Plant response rating, Barnyardgrass [12] | Plant response rating, Wheat [13] | Plant response rating, Foxtail, Giant [14] | Plant response rating, Foxtail, Giant [15] | Plant response rating, Corn [16] | Plant response rating, Flood, Barnyardgrass [17] | Plant response rating, Flood, Ducksalad [18] | Plant response rating, Flood, Sedge, Umbrella [19] | Plant response rating, Flood, Rice [20]
O=C(Nc1ccccc1Cl)C1C(=O)OCC1c1ccc(F)cc1 (racemic) [Compound 1] | 0 | 20 | 0 | 0 | 0 | 0 | 70 | 60 | 0 | 0 | 0 | 20 | 0 | 40 | 40 | 0 |  |  |  | 
O=C(Nc1ccccc1F)C1C(=O)OCC1c1ccc(F)c(F)c1 (racemic) [Compound 4] | 0 | 0 | 70 | 0 | 0 | 0 | 90 | 90 | 0 | 0 | 0 | 70 | 0 | 70 | 80 |  | 20 | 0 | 0 | 15
O=C(Nc1ccccc1F)C1C(=O)OCC1c1ccc(F)cc1 (racemic) [Compound 2] | 0 | 0 | 30 | 0 | 0 | 0 | 80 | 40 | 0 | 0 | 0 | 0 | 0 | 0 | 50 | 0 |  |  |  | 

Source: US10582709B2, “Butyrolactones as herbicides” (FMC Corporation, priority 2015, dated 2020)
